Source: PMC11992225, “Antibacterial compounds against non-growing and intracellular bacteria” (npj Antimicrobials and Resistance, 2025)
Several values for one entry are separate records, joined by “and”; a condition that tells them apart may be missing. Equal entries are not always repeated.

Assays:
[1] = system: non-growing P. aeruginosa DSM1117; assay: Dose-dependent killing analysis (CFU spot-plating) of stationary-phase P. aeruginosa; type: cell-based, Pseudomonas aeruginosa; conditions: for log10(CFU/ml) after treatment / killing, average Δlog10(CFU/ml) / Killing: average Δlog10(CFU/ml) / log10(CFU/ml) after treatment, single replicates: P. aeruginosa; for log10(CFU/ml) after treatment: individual replicates; for Killing: average Δlog10(CFU/ml): vs 8.887 before treatment
Summary of the method: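 Stationary-phase P. aeruginosa DSM1117 treated for 24 h in 1:4 CA-MHB, pH 7.4, across compound doses. Survivors counted after 10-fold PBS dilution, spot-plating on LB agar and overnight growth at 37 °C; three biological replicates.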

[2] = system: non-growing UPEC CFT073; assay: Dose-dependent killing analysis (CFU spot-plating) of stationary-phase UPEC; type: cell-based, Escherichia coli; conditions: for log10(CFU/ml) after treatment: individual replicates
Summary of the method: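 Non-growing (stationary-phase) UPEC CFT073 treated with compounds in 96-well format at 200 μl, then 10-fold serially diluted in PBS and 10 μl spots plated on LB agar. Plates incubated overnight at 37 °C; colonies counted at lowest resolvable dilution to give CFU. Three biological replicates.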

[3] = system: non-growing S. aureus DSM2569; assay: Dose-dependent killing analysis (CFU spot-plating) of stationary-phase S. aureus; type: cell-based, Staphylococcus aureus; conditions: for log10(CFU/ml) after treatment / log10(CFU/ml) after treatment, single replicates / Killing: average Δlog10(CFU/ml): S. aureus; for log10(CFU/ml) after treatment: individual replicates; for Killing: average Δlog10(CFU/ml): vs 9,097 before treatment
Summary of the method: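 Stationary-phase S. aureus DSM2569 was grown and treated for 24 h in 1:4 CA-MHB at pH 7.4. Treated samples were serially diluted 10-fold in PBS and spot-plated on LB agar, which was incubated overnight at 37 °C. Survivors were counted as CFU over three biological replicates.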

[4] = E. coli in 1:4 CA-MHB (pH 7.4), concentration 0.25
[5] = E. coli in 1:4 CA-MHB (pH 7.4), concentration 0.5
[6] = E. coli in 1:4 CA-MHB (pH 7.4), concentration 1
[7] = E. coli in 1:4 CA-MHB (pH 7.4), concentration 2.5
[8] = E. coli in 1:4 CA-MHB (pH 7.4), concentration 5
[9] = E. coli in LPM (pH 5.5), concentration 0.25
[10] = E. coli in LPM (pH 5.5), concentration 0.5
[11] = E. coli in LPM (pH 5.5), concentration 1
[12] = E. coli in LPM (pH 5.5), concentration 2.5
[13] = E. coli in LPM (pH 5.5), concentration 5

CCCCCCCCN=c1ccn(CCCCCCCCCCn2ccc(=NCCCCCCCC)cc2)cc1 [Octenidine]
log10(CFU/ml) after treatment ([1]; concentration 0.1): 10.204 log10(CFU/ml) and 9.447 log10(CFU/ml) and 9.415 log10(CFU/ml)
killing, average Δlog10(CFU/ml) ([1]; concentration 0.1, vs CFU before treatment): -0.305 log10(CFU/ml)
log10(CFU/ml) after treatment ([1]; concentration 0.5): 9.146 log10(CFU/ml) and 9.322 log10(CFU/ml) and 9.255 log10(CFU/ml)
killing, average Δlog10(CFU/ml) ([1]; concentration 0.5, vs CFU before treatment): 0.143 log10(CFU/ml)
log10(CFU/ml) after treatment ([1]; concentration 2.5): 9.230 log10(CFU/ml) (2×) and 9.322 log10(CFU/ml)
killing, average Δlog10(CFU/ml) ([1]; concentration 2.5, vs CFU before treatment): 0.123 log10(CFU/ml)
killing, average Δlog10(CFU/ml) ([1]; drug concentration 10): 0.517 log10(CFU/ml)
log10(CFU/ml) after treatment [2, 4]: 9.255 log10(CFU/ml) and 9.041 log10(CFU/ml) and 8.954 log10(CFU/ml)
log10(CFU/ml) after treatment [2, 5]: 9.041 log10(CFU/ml) and 9.176 log10(CFU/ml) and 9.301 log10(CFU/ml)
log10(CFU/ml) after treatment [2, 6]: 9.146 log10(CFU/ml) and 9.204 log10(CFU/ml) and 9.041 log10(CFU/ml)
log10(CFU/ml) after treatment [2, 7]: 9.000 log10(CFU/ml) and 8.903 log10(CFU/ml) and 8.778 log10(CFU/ml)
log10(CFU/ml) after treatment [2, 8]: 8.000 log10(CFU/ml) (2×) and 8.146 log10(CFU/ml)
log10(CFU/ml) after treatment [2, 9]: 7.301 log10(CFU/ml) and 7.568 log10(CFU/ml) and 7.886 log10(CFU/ml)
log10(CFU/ml) after treatment [2, 10]: 7.580 log10(CFU/ml) and 7.447 log10(CFU/ml) and 7.881 log10(CFU/ml)
log10(CFU/ml) after treatment [2, 11]: 7.447 log10(CFU/ml) and 7.663 log10(CFU/ml) and 7.778 log10(CFU/ml)
log10(CFU/ml) after treatment [2, 12]: 7.491 log10(CFU/ml) and 7.633 log10(CFU/ml) and 7.875 log10(CFU/ml)
log10(CFU/ml) after treatment [2, 13]: 7.380 log10(CFU/ml) and 7.663 log10(CFU/ml) and 7.863 log10(CFU/ml)
log10(CFU/ml) after treatment ([3]; concentration 0.1): 8.505 log10(CFU/ml) and 8.653 log10(CFU/ml) and 8.820 log10(CFU/ml)
log10(CFU/ml) after treatment ([3]; concentration 0.5): 8.114 log10(CFU/ml) and 8.380 log10(CFU/ml) and 8.643 log10(CFU/ml)
log10(CFU/ml) after treatment ([3]; concentration 2.5): 6.322 log10(CFU/ml) and 7.690 log10(CFU/ml) and 8.255 log10(CFU/ml)
reduction of non-growing S. aureus ([3]; at 10 µM, 24 h treatment): below the limit of detection

CO[C@H]1/C=C/O[C@@]2(C)Oc3c(C)c(O)c4c(c3C2=O)C2=NC3(CCN(CC(C)C)CC3)NC2=C(NC(=O)/C(C)=C\C=C\[C@H](C)[C@H](O)[C@@H](C)[C@@H](O)[C@@H](C)[C@H](OC(C)=O)[C@@H]1C)C4=O [Rifabutin]
Killing: average Δlog10(CFU/ml) ([1]; concentration 0.1): 0.484 log10(CFU/ml)
log10(CFU/ml) after treatment, single replicates ([1]; concentration 0.25): 8.477 log10(CFU/ml) and 8.954 log10(CFU/ml) and 7.778 log10(CFU/ml)
Killing: average Δlog10(CFU/ml) ([1]; concentration 0.5): 0.158 log10(CFU/ml)
Killing: average Δlog10(CFU/ml) ([1]; concentration 2.5): 4.469 log10(CFU/ml)
log10(CFU/ml) after treatment, single replicates ([1]; printed on the line of concentration 1): 8.301 log10(CFU/ml) and 9.041 log10(CFU/ml) and 8.845 log10(CFU/ml)
log10(CFU/ml) after treatment, single replicates ([1]; printed on the line of concentration 5): 4.477 log10(CFU/ml) and 4.778 log10(CFU/ml) and =<4 log10(CFU/ml)
reduction of bacterial counts, non-growing P. aeruginosa ([1]; at 2.5 µM, 1:4 CA-MHB pH 7.4, 24 h treatment): more than four
killing of non-growing P. aeruginosa ([1]; at 2.5 µM, 24 h treatment): > 4 log10
bactericidal activity against non-growing UPEC (CFU counting) ([2]; 24 h treatment of stationary phase culture): did not kill
log10(CFU/ml) after treatment, single replicates [2, 4]: 9.000 log10(CFU/ml) (2×) and 8.699 log10(CFU/ml)
Killing: average Δlog10(CFU/ml) ([2]; E. coli in 1:4 CA-MHB (pH 7.4), concentration 0.25, vs 8.977 before treatment): 0.078 log10(CFU/ml)
log10(CFU/ml) after treatment, single replicates [2, 5]: 9.230 log10(CFU/ml) and 8.532 log10(CFU/ml) and 8.699 log10(CFU/ml)
Killing: average Δlog10(CFU/ml) ([2]; E. coli in 1:4 CA-MHB (pH 7.4), concentration 0.5, vs 8.977 before treatment): 0.157 log10(CFU/ml)
log10(CFU/ml) after treatment, single replicates [2, 6]: 9.322 log10(CFU/ml) and 8.477 log10(CFU/ml) and 8.301 log10(CFU/ml)
Killing: average Δlog10(CFU/ml) ([2]; E. coli in 1:4 CA-MHB (pH 7.4), concentration 1, vs 8.977 before treatment): 0.277 log10(CFU/ml)
log10(CFU/ml) after treatment, single replicates [2, 7]: 8.699 log10(CFU/ml) and 8.505 log10(CFU/ml) and 8.000 log10(CFU/ml)
Killing: average Δlog10(CFU/ml) ([2]; E. coli in 1:4 CA-MHB (pH 7.4), concentration 2.5, vs 8.977 before treatment): 0.576 log10(CFU/ml)
log10(CFU/ml) after treatment, single replicates [2, 8]: 9.041 log10(CFU/ml) and 8.447 log10(CFU/ml) and 9.000 log10(CFU/ml)
Killing: average Δlog10(CFU/ml) ([2]; E. coli in 1:4 CA-MHB (pH 7.4), concentration 5, vs 8.977 before treatment): 0.148 log10(CFU/ml)
log10(CFU/ml) after treatment, single replicates ([2]; E. coli in 1:4 CA-MHB (pH 7.4), concentration 10): 8.903 log10(CFU/ml) and 8.176 log10(CFU/ml) and 8.415 log10(CFU/ml)
Killing: average Δlog10(CFU/ml) ([2]; E. coli in 1:4 CA-MHB (pH 7.4), concentration 10, vs 8.977 before treatment): 0.479 log10(CFU/ml)
log10(CFU/ml) after treatment, single replicates [2, 9]: 6.954 log10(CFU/ml) and 6.415 log10(CFU/ml) and 7.954 log10(CFU/ml)
Killing: average Δlog10(CFU/ml) ([2]; E. coli in LPM (pH 5.5), concentration 0.25, vs 7.350 before treatment): 0.243 log10(CFU/ml)
log10(CFU/ml) after treatment, single replicates [2, 10]: 7.000 log10(CFU/ml) and 6.778 log10(CFU/ml) and 7.663 log10(CFU/ml)
Killing: average Δlog10(CFU/ml) ([2]; E. coli in LPM (pH 5.5), concentration 0.5, vs 7.350 before treatment): 0.203 log10(CFU/ml)
log10(CFU/ml) after treatment, single replicates [2, 11]: 6.954 log10(CFU/ml) and 6.398 log10(CFU/ml) and 7.681 log10(CFU/ml)
Killing: average Δlog10(CFU/ml) ([2]; E. coli in LPM (pH 5.5), concentration 1, vs 7.350 before treatment): 0.339 log10(CFU/ml)
log10(CFU/ml) after treatment, single replicates [2, 12]: 7.322 log10(CFU/ml) and 6.845 log10(CFU/ml) and 7.623 log10(CFU/ml)
Killing: average Δlog10(CFU/ml) ([2]; E. coli in LPM (pH 5.5), concentration 2.5, vs 7.350 before treatment): 0.087 log10(CFU/ml)
log10(CFU/ml) after treatment, single replicates [2, 13]: 6.477 log10(CFU/ml) and 6.845 log10(CFU/ml) and 7.462 log10(CFU/ml)
Killing: average Δlog10(CFU/ml) ([2]; E. coli in LPM (pH 5.5), concentration 5, vs 7.350 before treatment): 0.422 log10(CFU/ml)
log10(CFU/ml) after treatment, single replicates ([2]; E. coli in LPM (pH 5.5), concentration 10): 7.114 log10(CFU/ml) and 6.954 log10(CFU/ml) and 7.633 log10(CFU/ml)
Killing: average Δlog10(CFU/ml) ([2]; E. coli in LPM (pH 5.5), concentration 10, vs 7.350 before treatment): 0.116 log10(CFU/ml)
log10(CFU/ml) after treatment, single replicates ([3]; concentration 0.1): 8.833 log10(CFU/ml) and 8.875 log10(CFU/ml) and 8.763 log10(CFU/ml)
Killing: average Δlog10(CFU/ml) ([3]; concentration 0.1): 0.273 log10(CFU/ml)
log10(CFU/ml) after treatment, single replicates ([3]; concentration 0.5): 8.869 log10(CFU/ml) and 8.996 log10(CFU/ml) and 8.079 log10(CFU/ml)
Killing: average Δlog10(CFU/ml) ([3]; concentration 0.5): 0.449 log10(CFU/ml)
log10(CFU/ml) after treatment, single replicates ([3]; concentration 2.5): 8.763 log10(CFU/ml) and 8.785 log10(CFU/ml) and 8.643 log10(CFU/ml)
Killing: average Δlog10(CFU/ml) ([3]; concentration 2.5): 0.366 log10(CFU/ml)
log10(CFU/ml) after treatment, single replicates ([3]; concentration 10): 8.778 log10(CFU/ml) and 8.806 log10(CFU/ml) and 8.756 log10(CFU/ml)
Killing: average Δlog10(CFU/ml) ([3]; concentration 10): 0.317 log10(CFU/ml)
